We go through 12 compounds from PubChem BioAssay AID1053132 (The Scripps Research Institute Molecular Screening Center, 2014).

Calls of active or inactive are those of the source. The rule behind the calls is not given here. A value given as a limit tells only on which side of the number the result lay.

This test addresses methionyl-tRNA synthetase (Trypanosoma brucei brucei). In words: T. brucei MetRS inhibitors, late-stage follow-up, biochemical, luminescence, dose response, round 3 (AID 1053132). The note with it: recombinant T. brucei MetRS, luminescence (ATP consumption).
As for `CCN(CC)C(=O)Cc1cn(CC(=O)Nc2cccc(C(F)(F)F)c2)c2ccccc12`, the IC50 (in general, the concentration needed to halve the response being measured) was > 119 µM (inactive). For `CCN(CC)C(=O)C(=O)c1cn(CC(=O)Nc2cc(Oc3ccccc3OC)cc(C(F)(F)F)c2)c2ccccc12` the value was 0.161 µM; for `CCN(CC)C(=O)C(=O)c1cn(CC(=O)Nc2cccc(C(F)(F)F)c2)c2ccccc12`, 0.128 µM; for `CCN(CC)C(=O)C(=O)c1cn(CC(=O)Nc2cc(Oc3ccc(OC)cc3)cc(C(F)(F)F)c2)c2ccccc12`, 0.168 µM. Turning to `Nc1c(Cl)ncnc1Nc1ccc(C(=O)O)cc1`, the IC50 was 2.54 µM. As for `O=C(Cn1cc(C(=O)C(=O)NCc2ccccc2)c2ccccc21)Nc1cc(Oc2ccccc2)cc(C(F)(F)F)c1`, the IC50 entry was “inactive”. For `CCN(CC)C(=O)C(=O)c1cn(CCNc2cc(Oc3ccccc3)cc(C(F)(F)F)c2)c2ccccc12` the value was “inactive”; for `CCN(CC)C(=O)C(=O)c1cn(CCNc2cccc(C(F)(F)F)c2)c2ccccc12`, > 119 µM (inactive).

Turning to `CCN(CC)C(=O)C(=O)c1cn(CC(=O)Nc2cc(Oc3ccccc3F)cc(C(F)(F)F)c2)c2ccccc12`, the half-inhibitory concentration (IC50) was 0.133 µM. For `CCN(CC)C(=O)C(=O)c1cn(CC(=O)Nc2cc(Oc3ccccc3)cc(C(F)(F)F)c2)c2ccccc12`, the 50% inhibitory concentration (IC50) was 0.0581 µM. On to `CCN(CC)C(=O)C(=O)c1cn(CC(=O)Nc2cc(Oc3ccc(F)cc3)cc(C(F)(F)F)c2)c2ccccc12`, for which the concentration for half-maximal inhibition (IC50) was 0.188 µM. With `O=C(Cc1ccc(Nc2nc3ccc(Br)cc3[nH]2)cc1)NCCc1cccs1`, the IC50 entry was “inactive”.
